Data: PubChem BioAssay (NCI)
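Test compounds were applied to cells in 96-well plates for 48 hours at 5 doses. TGI denotes the concentration required for complete inhibition of growth.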

What was measured:
Experiment in all cases: NCI anticancer screen, dose series, 48 h
[1] = system: NCI-H226 lung
[2] = system: MDA-MB-231 breast
[3] = system: COLO 205 colon
[4] = system: RPMI-8226 leukemia
[5] = system: OVCAR-4 ovarian
[6] = system: M14 melanoma
[7] = system: SF-268 CNS
[8] = system: HCC-2998 colon
[9] = system: BT-549 breast
[10] = system: KM12 colon
[11] = system: NCI-H23 lung
[12] = system: OVCAR-5 ovarian
[13] = system: SF-539 CNS
[14] = system: EKVX NSCLC
[15] = system: T-47D breast
[16] = system: LOX IMVI melanoma
[17] = system: 786-0 renal
[18] = system: SN12C renal
[19] = system: HCT-15 colon

C[C@@H]1CC[C@@H]2[C@@H](C1)O[C@@H]([C@@H](C)OCc1ccccc1)SC2(C)C
TGI [1]: 34.5 µM
TGI [2]: 38.2 µM
TGI [3]: 32.7 µM
TGI [4]: 35.4 µM
TGI [5]: 69.7 µM
TGI [6]: 37.7 µM
TGI [7]: 51.8 µM
TGI [8]: 33.7 µM
TGI [9]: 42.6 µM
TGI [10]: 34.4 µM
TGI [11]: 51.5 µM
TGI [12]: 32.9 µM
TGI [13]: 33.6 µM
TGI [14]: 67.4 µM
TGI [15]: 32.4 µM
TGI [16]: 41.9 µM
TGI [17]: 34 µM
TGI [18]: 32.3 µM
TGI [19]: 36.8 µM

Cc1ccc2nc(NS(=O)(=O)c3cc(C)c(Cl)cc3S)[nH]c2c1
TGI [2]: > 100 µM
TGI [3]: > 100 µM
TGI [4]: > 100 µM
TGI [5]: > 100 µM
TGI [6]: > 100 µM
TGI [7]: > 100 µM
TGI [8]: > 100 µM
TGI [9]: > 100 µM
TGI [10]: > 100 µM
TGI [11]: > 100 µM
TGI [12]: > 100 µM
TGI [13]: > 100 µM
TGI [14]: > 100 µM
TGI [15]: > 100 µM
TGI [16]: 73.2 µM
TGI [17]: > 100 µM
TGI [18]: > 100 µM
TGI [19]: > 100 µM

CC(=O)N1C(Nc2nccs2)CCN1c1ccccc1 (configuration not stated)
TGI [1]: > 10 µM
TGI [2]: > 10 µM
TGI [3]: > 10 µM
TGI [4]: > 10 µM
TGI [5]: > 10 µM
TGI [6]: > 10 µM
TGI [7]: > 10 µM
TGI [8]: > 10 µM
TGI [9]: > 10 µM
TGI [11]: > 10 µM
TGI [12]: > 10 µM
TGI [13]: > 10 µM
TGI [14]: > 10 µM
TGI [15]: > 10 µM
TGI [16]: > 10 µM
TGI [17]: > 10 µM
TGI [18]: > 10 µM
TGI [19]: > 10 µM

CCOC(=O)c1nc2ccc(C(F)(F)F)cc2nc1Nc1ccc(OC)cc1
TGI [1]: > 100 µM
TGI [2]: 50.6 µM
TGI [3]: > 100 µM
TGI [4]: > 100 µM
TGI [5]: 49.1 µM
TGI [6]: > 100 µM
TGI [7]: > 100 µM
TGI [8]: > 100 µM
TGI [9]: 86.4 µM
TGI [10]: > 100 µM
TGI [11]: > 100 µM
TGI [12]: > 100 µM
TGI [13]: 90.1 µM
TGI [14]: > 100 µM
TGI [15]: > 100 µM
TGI [16]: > 100 µM
TGI [17]: > 100 µM
TGI [19]: > 100 µM

COC(=O)/C=C/[C@@H]1[C@H](C)N1S(=O)(=O)c1ccc(C)cc1 (some centres not stated)
TGI [1]: > 100 µM
TGI [2]: > 100 µM
TGI [3]: > 100 µM
TGI [4]: > 100 µM
TGI [5]: > 100 µM
TGI [6]: > 100 µM
TGI [7]: > 100 µM
TGI [8]: > 100 µM
TGI [9]: > 100 µM
TGI [11]: > 100 µM
TGI [12]: > 100 µM
TGI [13]: > 100 µM
TGI [14]: > 100 µM
TGI [15]: > 100 µM
TGI [16]: > 100 µM
TGI [17]: > 100 µM
TGI [18]: > 100 µM
TGI [19]: > 100 µM

COc1ccc(-c2nc(Nc3ccccc3)sc2Cc2sc(Nc3ccccc3)nc2-c2ccc(OC)cc2)cc1
TGI [1]: > 100 µM
TGI [2]: > 100 µM
TGI [3]: > 100 µM
TGI [4]: > 100 µM
TGI [5]: > 100 µM
TGI [7]: > 100 µM
TGI [8]: > 100 µM
TGI [9]: > 100 µM
TGI [10]: > 100 µM
TGI [11]: > 100 µM
TGI [12]: > 100 µM
TGI [13]: > 100 µM
TGI [14]: > 100 µM
TGI [15]: > 100 µM
TGI [16]: > 100 µM
TGI [17]: > 100 µM
TGI [18]: > 100 µM
TGI [19]: > 100 µM

COC(=O)[C@@](NC(=O)OCc1ccccc1)([C@H](C)O)C(F)(F)F
TGI [1]: > 100 µM
TGI [2]: > 100 µM
TGI [3]: > 100 µM
TGI [4]: > 100 µM
TGI [5]: > 100 µM
TGI [6]: > 100 µM
TGI [7]: > 100 µM
TGI [8]: > 100 µM
TGI [9]: > 100 µM
TGI [10]: > 100 µM
TGI [11]: > 100 µM
TGI [12]: > 100 µM
TGI [14]: > 100 µM
TGI [15]: > 100 µM
TGI [16]: > 100 µM
TGI [17]: > 100 µM
TGI [19]: > 100 µM

Cc1ccc(S(=O)(=O)N2CCSCCSCCSCCN(S(=O)(=O)c3ccc(C)cc3)CC2)cc1
TGI [1]: > 100 µM
TGI [2]: > 100 µM
TGI [3]: > 100 µM
TGI [4]: > 100 µM
TGI [5]: > 100 µM
TGI [6]: > 100 µM
TGI [7]: > 100 µM
TGI [8]: > 100 µM
TGI [9]: > 100 µM
TGI [10]: > 100 µM
TGI [11]: > 100 µM
TGI [12]: > 100 µM
TGI [13]: > 100 µM
TGI [14]: > 100 µM
TGI [15]: > 100 µM
TGI [17]: > 100 µM
TGI [18]: > 100 µM

CCOc1ccc(NC(=O)C(=O)Nn2c(N)nnc2N)cc1
TGI [1]: > 100 µM
TGI [2]: > 100 µM
TGI [4]: > 100 µM
TGI [5]: > 100 µM
TGI [6]: > 100 µM
TGI [7]: > 100 µM
TGI [8]: > 100 µM
TGI [9]: > 100 µM
TGI [10]: > 100 µM
TGI [11]: > 100 µM
TGI [12]: > 100 µM
TGI [13]: > 100 µM
TGI [14]: > 100 µM
TGI [15]: > 100 µM
TGI [16]: > 100 µM
TGI [17]: > 100 µM
TGI [18]: > 100 µM
TGI [19]: > 100 µM

O=c1c(Sc2c(SCSc3cnc4ccccc4c3Sc3c[nH]c4ccccc4c3=O)cnc3ccccc23)c[nH]c2ccccc12
TGI [2]: > 100 µM
TGI [3]: > 100 µM
TGI [4]: > 100 µM
TGI [5]: > 100 µM
TGI [6]: > 100 µM
TGI [7]: > 100 µM
TGI [8]: > 100 µM
TGI [9]: > 100 µM
TGI [10]: > 100 µM
TGI [11]: > 100 µM
TGI [12]: > 100 µM
TGI [13]: > 100 µM
TGI [14]: > 100 µM
TGI [15]: > 100 µM
TGI [16]: > 100 µM
TGI [17]: > 100 µM
TGI [18]: > 100 µM
TGI [19]: > 100 µM

CC(C)(O)c1cc2c(cc1C(C)(C)O)-c1ccccc1-2
TGI [1]: > 100 µM
TGI [2]: > 100 µM
TGI [3]: > 100 µM
TGI [4]: > 100 µM
TGI [5]: > 100 µM
TGI [6]: > 100 µM
TGI [7]: > 100 µM
TGI [8]: > 100 µM
TGI [9]: > 100 µM
TGI [10]: > 100 µM
TGI [12]: > 100 µM
TGI [13]: > 100 µM
TGI [14]: > 100 µM
TGI [15]: > 100 µM
TGI [16]: > 100 µM
TGI [17]: > 100 µM
TGI [18]: > 100 µM
TGI [19]: > 100 µM
